Measurements reported in US20260028354A1, “TETRAHYDRONAPHTHALENE DERIVATIVES AS ESTROGEN RECEPTOR DEGRADERS” (REGENT OF THE UNIVERSITY OF MICHIGAN, priority 2022, published 2026).

molecular target: ER (Homo sapiens (Human), UniProt P03372); test: In-cell western blot analysis of ER for "B" compounds; format: cell-based; details: 16 hours, read-out: ICW DC50
Protocol: R^T 2h, gentle shaking. Negative control: cells plus secondary antibodies (no primary antibodies); e, wash x 4 with PBS+0.05-0.1% Tween 20, gentel shaking; f, anti-rabbit-680 and anti-mouse-800 (both 1:1000 in LiCor block+0.05% Tween20, R^T 1h, gentle shaking, no light. LI-COR: 0.2% to reduce background; g, wash×4 with PBS+0.05% Tween 20, gental shaking; h, add 100 μL or 25 μL of PBS to each well and read on CLX plate reader. The relative ER percentage in treated cells were obtained by comparing the values of treated wells to those in untreated and DMSO-treated wells as 100%.

ER, sequence (P03372 whole entry): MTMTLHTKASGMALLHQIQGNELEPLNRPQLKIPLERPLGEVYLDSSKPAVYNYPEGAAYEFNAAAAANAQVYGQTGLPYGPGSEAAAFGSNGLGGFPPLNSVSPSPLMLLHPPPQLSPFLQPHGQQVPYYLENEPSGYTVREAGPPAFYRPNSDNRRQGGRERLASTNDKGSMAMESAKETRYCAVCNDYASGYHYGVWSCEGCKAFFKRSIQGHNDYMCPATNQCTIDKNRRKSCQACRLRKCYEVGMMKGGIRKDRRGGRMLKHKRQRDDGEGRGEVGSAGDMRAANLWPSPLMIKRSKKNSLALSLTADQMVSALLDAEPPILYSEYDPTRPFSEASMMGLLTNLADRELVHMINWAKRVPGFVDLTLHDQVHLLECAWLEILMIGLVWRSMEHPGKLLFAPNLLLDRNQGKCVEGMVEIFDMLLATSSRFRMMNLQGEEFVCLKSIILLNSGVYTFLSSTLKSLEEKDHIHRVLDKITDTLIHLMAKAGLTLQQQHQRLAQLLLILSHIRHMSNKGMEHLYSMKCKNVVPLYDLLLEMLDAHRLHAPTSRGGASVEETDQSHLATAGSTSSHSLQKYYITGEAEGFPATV

| DC50 | SMILES |
| --- | --- |
| < 10 nM | O=C1CC[C@H](N2Cc3c(ccc4c3OC[C@H]3CN(CC5CCC6(CN(c7ccc([C@@H]8c9ccc(O)cc9CC[C@@H]8c8ccccc8)cc7)C6)OC5)CCN43)C2=O)C(=O)N1 (stereo partly drawn) [Compound B348, (3S)-3-((5aR)-7-((2-(4-((1R,2S)-6-hydroxy-2-phenyl-1,2,3,4-tetrahydronaphthalen-1-yl)phenyl)-5-oxa-2-azaspiro[3.5]nonan-7-yl)methyl)-1-oxo-1,3,5,5a,6,7,8,9-octahydro-2H-pyrazino[1′,2′:4,5][1,4]oxazino[2,3-e]isoindol-2-yl)piperidine-2,6-dione] |
| > 100 nM | O=C1CCC(Nc2ccc(C3CCN(CC4CC5(CCN(c6ccc([C@@H]7c8ccc(O)cc8CC[C@@H]7c7ccccc7)cc6)CC5)C4)CC3)cc2F)C(=O)N1 (stereo partly drawn) [Compound B379, 3-((2-fluoro-4-(1-((7-(4-((1R,2S)-6-hydroxy-2-phenyl-1,2,3,4-tetrahydronaphthalen-1-yl)phenyl)-7-azaspiro[3.5]nonan-2-yl)methyl)piperidin-4-yl)phenyl)amino)piperidine-2,6-dione] |
| > 100 nM | O=C1CCC(Nc2ccc(N3CCN(CC4CCC5(CCN(c6ccc([C@@H]7c8ccc(O)cc8CC[C@@H]7c7ccccc7)cc6)CC5)OC4)CC3)c(F)c2)C(=O)N1 (stereo partly drawn) [Compound B382, 3-((3-fluoro-4-(4-((9-(4-((1R,2S)-6-hydroxy-2-phenyl-1,2,3,4-tetrahydronaphthalen-1-yl)phenyl)-1-oxa-9-azaspiro[5.5]undecan-3-yl)methyl)piperazin-1-yl)phenyl)amino)piperidine-2,6-dione] |
| > 100 nM | O=C1CCC(Nc2ccc(N3CCN(CC4CC5(CCN(c6ccc([C@@H]7c8ccc(O)cc8CC[C@@H]7c7ccccc7)cc6)CC5)C4)CC3)c(F)c2)C(=O)N1 (stereo partly drawn) [Compound B381, 3-((3-fluoro-4-(4-((7-(4-((1R,2S)-6-hydroxy-2-phenyl-1,2,3,4-tetrahydronaphthalen-1-yl)phenyl)-7-azaspiro[3.5]nonan-2-yl)methyl)piperazin-1-yl)phenyl)amino)piperidine-2,6-dione] |
| 10 to 100 nM | O=C1CC[C@H](N2Cc3cc4c(cc3C2=O)OC[C@@H]2CN(CC3CCC5(CN(c6ccc([C@@H]7c8ccc(O)cc8CC[C@@H]7c7ccccc7)cc6)C5)OC3)CCN42)C(=O)N1 (stereo partly drawn) [Compound B349, (3S)-3-((4aS)-3-((2-(4-((1R,2S)-6-hydroxy-2-phenyl-1,2,3,4-tetrahydronaphthalen-1-yl)phenyl)-5-oxa-2-azaspiro[3.5]nonan-7-yl)methyl)-8-oxo-1,2,3,4,4a,5,8,10-octahydro-9H-pyrazino[1′,2′:4,5][1,4]oxazino[2,3-f]isoindol-9-yl)piperidine-2,6-dione] |
| 10 to 100 nM | O=C1CC[C@H](N2Cc3cc4c(cc3C2=O)OC[C@@H]2CN(C[C@H]3CC[C@@H](Nc5ccc([C@@H]6c7ccc(O)cc7CC[C@@H]6c6ccccc6)cc5)CC3)CCN42)C(=O)N1 [Compound B354, (S)-3-((S)-3-(((1R,4S)-4-((4-((1R,2S)-6-hydroxy-2-phenyl-1,2,3,4-tetrahydronaphthalen-1-yl)phenyl)amino)cyclohexyl)methyl)-8-oxo-1,2,3,4,4a,5,8,10-octahydro-9H-pyrazino[1′,2′:4,5][1,4]oxazino[2,3-f]isoindol-9-yl)piperidine-2,6-dione] |
| > 100 nM | O=C1CCC(N2Cc3cc4c(cc3C2=O)OC[C@@H]2CN(CC3CC5CN(c6ccc([C@@H]7c8ccc(O)cc8CC[C@@H]7c7ccccc7)cc6)CC5C3)CCN42)C(=O)N1 (mixture of isomers) [Compound B321, 3-((4aS)-3-(((3aRS,6aSR)-2-(4-((1R,2S)-6-hydroxy-2-phenyl-1,2,3,4-tetrahydronaphthalen-1-yl)phenyl)octahydrocyclopenta[c]pyrrol-5-yl)methyl)-8-oxo-1,2,3,4,4a,5,8,10-octahydro-9H-pyrazino[1′,2′:4,5][1,4]oxazino[2,3-f]isoindol-9-yl)piperidine-2,6-dione] |

The next lines start with the compound.

| SMILES | DC50 |
| --- | --- |
| O=C1CCC(N2Cc3cc4c(cc3C2=O)OC[C@@H]2CN(CC(=O)N3CCC5(CC3)CN(c3ccc([C@@H]6c7ccc(O)cc7CC[C@@H]6c6ccccc6)cc3)C5)CCN42)C(=O)N1 (stereo partly drawn) [Compound B160, 3-((S)-3-(2-(2-(4-((1R,2S)-6-hydroxy-2-phenyl-1,2,3,4-tetrahydronaphthalen-1-yl)phenyl)-2,7-diazaspiro[3.5]nonan-7-yl)-2-oxoethyl)-8-oxo-1,2,3,4,4a,5,8,10-octahydro-9H-pyrazino[1′,2′:4,5][1,4]oxazino[2,3-f]isoindol-9-yl)piperidine-2,6-dione] | < 10 nM |
| CN1C[C@@H]2CN(C(=O)CN3CC4(CCN(c5ccc([C@@H]6c7ccc(O)cc7CC[C@@H]6c6ccccc6)cc5)CC4)C3)CCN2c2cc3c(cc21)C(=O)N(C1CCC(=O)NC1=O)C3 (stereo partly drawn) [Compound B162, 3-((R)-3-(2-(7-(4-((1R,2S)-6-hydroxy-2-phenyl-1,2,3,4-tetrahydronaphthalen-1-yl)phenyl)-2,7-diazaspiro[3.5]nonan-2-yl)acetyl)-6-methyl-8-oxo-2,3,4,4a,5,6,8,10-octahydropyrazino[1,2-a]pyrrolo[3,4-g]quinoxalin-9(1H)-yl)piperidine-2,6-dione] | 10 to 100 nM |
| O=C1CCC(N2Cc3cc4c(cc3C2=O)OC[C@@H]2CN(CC(=O)N3C[C@@H]5CN(c6ccc([C@@H]7c8ccc(O)cc8CC[C@@H]7c7ccccc7)cc6)C[C@@H]5C3)CCN42)C(=O)N1 (stereo partly drawn) [Compound B156, 3-((S)-3-(2-((3aR,6aS)-5-(4-((1R,2S)-6-hydroxy-2-phenyl-1,2,3,4-tetrahydronaphthalen-1-yl)phenyl)hexahydropyrrolo[3,4-c]pyrrol-2(1H)-yl)-2-oxoethyl)-8-oxo-1,2,3,4,4a,5,8,10-octahydro-9H-pyrazino[1′,2′:4,5][1,4]oxazino[2,3-f]isoindol-9-yl)piperidine-2,6-dione] | > 100 nM |
| O=C1CCC(N2Cc3c(ccc4c3OC[C@H]3CN(CC5CC6CN(c7ccc([C@@H]8c9ccc(O)cc9CC[C@@H]8c8ccccc8)cc7)CC6C5)CCN43)C2=O)C(=O)N1 (stereo partly drawn) [Compound B320, 3-((5aR)-7-(((3aRS,6aSR)-2-(4-((1R,2S)-6-hydroxy-2-phenyl-1,2,3,4-tetrahydronaphthalen-1-yl)phenyl)octahydrocyclopenta[c]pyrrol-5-yl)methyl)-1-oxo-1,3,5,5a,6,7,8,9-octahydro-2H-pyrazino[1′,2′:4,5][1,4]oxazino[2,3-c]isoindol-2-yl)piperidine-2,6-dione] | > 100 nM |
| O=C1CCC(N2Cc3cc4c(cc3C2=O)OC[C@@H]2CN(C(=O)CN3CCC5(CC3)CCN(c3ccc([C@@H]6c7ccc(O)cc7CC[C@@H]6c6ccccc6)cn3)CC5)CCN42)C(=O)N1 (stereo partly drawn) [Compound B158, 3-((S)-3-(2-(9-(5-((1S,2S)-6-hydroxy-2-phenyl-1,2,3,4-tetrahydronaphthalen-1-yl)pyridin-2-yl)-3,9-diazaspiro[5.5]undecan-3-yl)acetyl)-8-oxo-1,2,3,4,4a,5,8,10-octahydro-9H-pyrazino[1′,2′:4,5][1,4]oxazino[2,3-f]isoindol-9-yl)piperidine-2,6-dione] | 10 to 100 nM |
| O=C1CCC(N2Cc3c(ccc4c3OCC43CCN(C(=O)CN4CCC5(C4)CN(c4ccc([C@@H]6c7ccc(O)cc7CC[C@@H]6c6ccccc6)cc4)C5)CC3)C2=O)C(=O)N1 (stereo partly drawn) [Compound B169, 3-(1′-(2-(2-(4-((1R,2S)-6-hydroxy-2-phenyl-1,2,3,4-tetrahydronaphthalen-1-yl)phenyl)-2,6-diazaspiro[3.4]octan-6-yl)acetyl)-6-oxo-6,8-dihydro-2H,7H-spiro[furo[2,3-e]isoindole-3,4′-piperidin]-7-yl)piperidine-2,6-dione] | < 10 nM |
